From patent US10912760B1, “Method of inhibiting cancer metastasis” (Chung Shan Medical University, priority 2019, dated 2021)

How the values were obtained:
DLD-1 cells = experiment: Ex vivo xenograft mice model: pretreated DLD-1 cells injected into spleen and peritoneal site; type: in vivo, Balb/c nude mice
Method: Luciferase expressing DLD-1 cells were pretreated with or without 30 μM Camphorataimide B for 24 hours, and then injected into the abdomen and spleen of Balb/c nude mice (five mice for each group), 35 days after implantation, the representative ex vivo images for liver and abdominal metastasis burden in xenografted animals were monitored using bioluminescent imaging (BLI).
FIG. 2B: Quantitation of results of FIG. 2A. Luciferase expressing DLD-1 cells were pretreated with or without 30 μM Camphorataimide B for 24 hours, and then injected into the abdomen and spleen of Balb/c nude mice. After 35 days implantation, the mice were photographed and tumor metastatic capability was analyzed. * and ** represented P<0.01 and P<0.001 as compared to untreated group, respectively.
FIG. 2C: Camphorataimide B suppressed hepatic and abdominal metastasis of DLD-1 cells in ex vivo xenograft mice model. DLD-1 cells were pretreated with or without 30 μM Camphorataimide B for 24 hours, and then spleeny and intraperitoneally injected into Balb/c mice, respectively. After 35 days, the mice were sacrificed and the tissues were obtained and photographed.
FIG. 2D: Quantitation of results of FIG. 2C. DLD-1 cells were pretreated with or without 30 μM Camphorataimide B for 24 hours, and then spleeny and intraperitoneally injected into Balb/c mice, respectively. After 35 days, the mice were sacrificed and photographed. Total weight of tumor foci from the metastatic tissues were presented and quantitated. *, P<0.01 and P<0.001 between the indicated groups.
FIG. 2E: Camphorataimide B suppressed metastasis in ex vivo xenograft mice model. […]
(§1) Male Balb/c nude mice aged four weeks were purchased from National Laboratory Animal Center of Taiwan (Taipei City, Taiwan) and maintained under supervision of the Institutional Animal Care and Use Committee at Chung Shan Medical University. […] The liver metastasis burden was monitored weekly by bioluminescence imaging (BLI). […]

breast cancer cells = settings: reported; cited from earlier work
[1] = tested on: F-actin in colon cancer cells (DLD-1, SW480 and SW620); experiment: Immunofluorescence (phalloidin) staining of F-actin cytoskeleton; type: cell-based, human; settings: confocal microscope, compared to control
Method: FIG. 1F: Effect of Camphorataimide B on cytoskeleton structure of colon cancer cells. The treated cells were seeded on a matrix-coated dish, and then F-actin (red) was detected by immunofluorescence staining, while the nuclei (blue) were detected by DAPI staining. Fluorescent images were acquired by using confocal microscopy. Scale bars, […].
Adherent cells were fixed on the glass slides using 4% ice-cold formaldehyde and reacted with blocking buffer and 0.5% Triton X-100 for 1 hour at room temperature. The reacted cells were incubated with primary antibodies overnight at 4° C. The bound primary antibodies were detected using Alexa Fluor-labeled secondary antibody (Jackson ImmunoResearch Laboratories, West Grove, Pa., USA). Alexa Fluor-conjugated phalloidin (Cell Signaling) was used for detection of polymerized F-actin microfilaments. Fluorescence image was acquired by using a laser scanning confocal microscope system (Zeiss 510 meta, Zeiss, Oberkochen, Germany).

[2] = tested on: colon cancer cells (DLD-1, SW480 and SW620); experiment: Soft agar colony formation assay; type: cell-based, human; settings: 1 week
Method: FIG. 1E: Effect of Camphorataimide B on colony formation of colon cancer cells. The three colon cancer cells were pretreated with indicated concentration of Camphorataimide B for 24 hours, seeded on soft agar plates, and then incubated for one week. After the treatments, the number of colonies was quantitated. Quantitative results were presented as means±SD. Three independent experiments were performed for statistical analysis. * and ** represented P<0.01 and P<0.001 as compared to control, respectively.
Cells suspended in agarose medium (10% FBS and 0.3 agarose in medium) containing serial concentrations of Camphorataimide Bwere plated onto 6-well plate which was pre-coated with a layer of solidified agarose (10% FBS and 0.6% agarose in medium), and then incubated at 37° C. in a humidified atmosphere containing 5% CO2 for 1 week. At the end of incubation, cell colonies were fixed, stained with crystal violet, and then photographed using Nikon Eclipse TE2000-U microscope equipped with a Nikon Digital Camera DXM1200 and those colonies with size greater than 0.1 mm were counted.

[3] = tested on: colon cancer cells (DLD-1, SW480 and SW620); experiment: Cell invasion assay (Matrigel coated transwell); type: cell-based, human
Method: (§2) FIG. 1A: Effect of Camphorataimide B on migration and invasion of colon cancer cells. For migration assay, three colon cancer cells (DLD-1, SW480 and SW620) were pretreated with the indicated concentrations of Camphoratamide B for 24 hours, seeded onto transwell inserts, and then incubated for 12 hours. For invasion assay, the three colon cancer cells were pretreated with the indicated concentrations of Camphorataimide B for 24 hours, seeded onto Matrigel coated transwell inserts, and then incubated for 16 hours. After the treatments, numbers of cell on the lower surface membrane were stained, photographed and counted for quantitation of migrated and invaded cells.
(§3) FIG. 1B: Quantitation of effect of Camphorataimide B on migration and invasion of colon cancer cells. Quantitative results were presented as means±SD. Three independent experiments were performed for statistical analysis. * and ** represented P<0.01 and P<0.001 as compared to control, respectively.
(§4) Cells were pretreated with Camphorataimide B for 24 hours, harvested and then seeded on to 24-well cell culture inserts (8 μm pore size, Millipore). […] The stained cells were photographed and quantified form five random fields under microscopic examination. […] Cells invaded into the lower surface of the insert were quantitated as described earlier.

[4] = tested on: colon cancer cells (DLD-1, SW480 and SW620); experiment: Cell migration assay (transwell); type: cell-based, human
Method: as §2, §3, §4

[5] = tested on: colon cancer cells (DLD-1, SW480 and SW620); experiment: Cell adhesion assay; type: cell-based, human; settings: pretreated 24 hours, Matrigel coated plates, 8 hours
Method: FIG. 1C: Effect of Camphorataimide B on adhesion of colon cancer cells. The three colon cancer cells were pretreated with the indicated concentrations of Camphorataimide B for 24 hours, seeded on a matrix coated monolayer dish, and then incubated for 8 hours. After washing with PBS, the attached cells were photographed and quantitated.
FIG. 1D: Quantitation of effect of Camphorataimide B on adhesion of colon cancer cells. Quantitative results were presented as means±SD. Three independent experiments were performed for statistical analysis. * and ** represented P<0.01 and P<0.001 as compared to control, respectively.
Cells were incubated with serial concentration of Camphorataimide B in a complete medium for 24 hours, transferred in to 12-well Matrigel coated plates (10^5 cells per well), and incubated at 37° C. for 8 hours. After the incubation, non-adherent cells were removed by PBS washing and the attached cells were photographed and quantitated using a cell counter.

[6] = tested on: Luciferase expressing DLD-1 cells; experiment: In vivo xenograft mice model: oral treatment after Luc-DLD-1 injection; parameters: species or system Balb/c nude mice
Method: Luciferase expressing DLD-1 cells were suspended in phosphate buffered saline and injected into the spleen and peritoneal site of 5-week-old male Balb/c nude mice, respectively. After one week, the mice were orally administrated with 10 or 20 mg/kg Camphorataimide B or saline vehicle for one month (five mice for each group). IVIS luciferase in vivo images of liver and abdominal metastasis burden were monitored using bioluminescent imaging (BLI). Data represented mean±SD. * and ** represented P<0.01 and P<0.001 between the indicated groups, respectively.
FIG. 2G: Camphorataimide B suppressed hepatic and abdominal metastasis of DLD-1 cells in in vivo xenograft mice model. Luciferase expressing DLD-1 cells were suspended in phosphate buffered saline and injected into the spleen and peritoneal site of Balb/c nude mice, respectively. After one week, the mice were orally administrated with 10 or 20 mg/kg Camphorataimide B or saline vehicle (five mice for each group). After one month, the mice were sacrificed and the tissues were obtained and photographed.
FIG. 2H: Quantitation of results of FIG. 2G. Luciferase expressing DLD-1 cells were suspended in phosphate buffered saline and injected into the spleen and peritoneal site of Balb/c nude mice, respectively. After one week, the mice were orally administrated with 10 or 20 mg/kg Camphorataimide B or saline vehicle (five mice for each group). After 35 days, the mice were sacrificed and photographed. Total weight of tumor foci from the metastatic tissues were presented and quantitated. * and ** represented P<0.01 and P<0.001 between the indicated groups, respectively.
as §1

[7] = 20 and 30 μM, P<0.01 as compared to control

For CC(C)=CCOc1ccc(C2=C(CC(C)C)C(=O)NC2=O)cc1 [Camphorataimide B], the “attachment to colon tissue, number and size of tumors” value (DLD-1 cells; DLD-1 cells pretreated with 30 μM for 24 hours, after 35 days) was “rarely attached to colon tissue and formed fewer number and smaller size of tumors”, the “hepatic and abdominal metastatic lesion (hematoxylin and eosin staining)” value (DLD-1 cells; DLD-1 cells pretreated with 30 μM for 24 hours, day 35, compared to untreated cells) was “significantly diminished” and the “liver and abdominal metastasis burden (bioluminescent imaging)” value (DLD-1 cells; Luc-DLD-1 cells pretreated with 30 μM for 24 hours, 35 days after implantation) was “suppressed liver and abdominal metastasis”. The “tumor growth in breast cancer cells” value (breast cancer cells) was “can inhibit tumor growth”, the “regular architecture and expression level of F-actin” value [1] was “disrupted and decreased” and the colony numbers [2] was “significantly reduced”. For the same compound, the inhibition of invasiveness [3, 7] was “significant”, the “invasiveness of colon cancer cells” value ([3]; pretreated 24 hours, indicated concentrations, Matrigel transwell 16 hours) was “dose-dependently inhibited” and the inhibition of migration [4, 7] was “significant”. The “migration of colon cancer cells” value ([4]; pretreated 24 hours, indicated concentrations, transwell 12 hours) was “dose-dependently inhibited”, the adherent cell numbers [5] was “significantly reduced” and the “tumor size by bioluminescent imaging” value ([6]; oral 10 and 20 mg/kg every three days for 1 month) was “smaller tumors than tumor group”. The “tumor growth and metastatic ability” value ([6]; oral 10 and 20 mg/kg every three days for 1 month, versus untreated tumors) was “grew slowly and less metastatic ability than untreated tumors” and the “increased gross weight of tumor” value ([6]; oral 10 and 20 mg/kg every three days, after 35 days) was “notably inhibited”.
